Test results published in US20090233999A1, “COMPOSITIONS AND THERAPEUTIC METHODS INVOLVING ISOFLAVONES AND ANALOGUES THEREOF” (NOVOGEN RESEARCH PTY LTD, priority 1999, published 2009).

Legend:
A10 = assay: Proliferation of rat aorta media cell line A10; type: cell-based; conditions: 72 h, three days, read-out: VSMC proliferation - IC50 (μM), A10
Description: Human umbilical vein smooth muscle cells (HUVSMC), tissue explants from a neonate (HRI— passage 2), were seeded into 96 well plates at 1×10^3 cells per well, and allowed to attach for 24 hours. They were then washed twice and incubated in medium without FBS for 24-48 hours to serum-starve them. Test compounds were prepared in medium without FBS and added to the plates and incubated for one hour. Medium with FBS was added to give a final concentration of 10% and the plates incubated for 5 days until the controls were just confluent. Final analogue concentration was therefore either a series from 150 μM to 1.2 μM, or single concentrations of 10 μM. The difference in absorbance between treated cells and untreated cells was calculated using the formula, test/control*100, to obtain the percentage change caused by the test compound. As well, an IC50 for each compound was calculated.
The effect of test compounds a rat aortic smooth muscle cell line (A7r5) and another cell line from the media of rat aorta (A10) was examined. The methodology was the same as for HUVSMC, except that the cells were treated with compound for three days.

[1] = test system: Dark Agouti rats (air pouch); assay: Rat air pouch assay (serum-treated zymozan); type: in vivo; conditions: for Leucocytes in lavage fluid (×10^−7) / Polymorphs in tissue sections (per 100 squares): 4 h; for activity in the rat air pouch assay: in vivo
Description: Air pouches were raised on the dorsum of female Dark Agouti rats, approximately seven weeks of age. To promote the formation of a cellular membrane lining the inside of each pouch, the pouches were maintained by re-inflating on days 2 and 5 after the initial injection of air. On re-inflation, the pouch was first deflated to ensure the needle was positioned correctly, before being re-inflated with 2 mL of sterile air. Using this protocol, the pouches remained inflated until use on day 7, when they were injected with 0.5 ml of either test compound or vehicle control. After 15 min, air pouches were injected with serum-treated zymozan (500 μg). Lavage of the air pouch was performed at 4 h and leucocytes counted, after which the rats were killed, the air pouch excised and processed in formalin for histology. The sections were blinded to the person counting. Using a graticule with 100 squares and the 40× objective, the number of polymorphs were counted in the pouch lining at 10 different and non-adjacent sites. Group sizes were 5-6 rats. Data were analysed for statistical significance within each experiment and using an unpaired t test.

mast cells = assay: UVB psoriasis model: histochemical identification of dermal mast cells; type: in vivo, mouse; conditions: 20 μM topical; 72 h post-UVB; UVB alone 14.2, unirradiated 9.8
Description: Groups of 3 Skh:hr-1 mice were exposed to 3×MEdD of UVB radiation, with and without topical treatments of 20 μM Cpd. 18 immediately and at 24 and 48 h post-UVB. The mice were euthanased and, and mid-dorsal skin samples were taken before and at 72 h after irradiation for histological fixation. The samples were fixed for 6 h in Histochoice and processed and wax-embedded as described above. Sections of 5 μm were cut for histochemical identification of mast cells, by staining with 0.1% toluidine blue solution in McIlvane buffer, pH 3. Positively stained cells with a diameter of 10 μm or more in the dermal compartment were counted under light microscopy (Olympus UPlanApo, Japan) using a at 20× magnification, in 10 sequential non-overlapping fields for each of 3 mice per treatment group, and the average mast cell number per field was obtained. Statistical significance of the differences between groups was determined using Student's t test. All the experiments were performed at least twice, with triplicate skin samples.

IL-6 = assay: UVB psoriasis model: immunohistochemical detection of IL-6; type: in vivo, mouse; conditions: 20 μM topical; 72 h; Skh:hr-1
Description: Groups of three Skh:hr-1 mice were exposed to 3×MEdD of UVB radiation, with and without topical treatment with 20 μM Cpd. 18, and were euthanased before and at 24, 48, 72 and 96 h after irradiation, and mid-dorsal skin samples were taken for histological fixation. The samples were fixed for 6 h in Histochoice (Amresco Solon, Ohio), then processed overnight in an automated formalin-ethanol-based system (Tissue Tek VIP; Bayer Diagnostics, Ferntree Gully, Australia) and embedded into paraffin blocks. Sections of 4 μm were cut onto silane-coated slides, de-waxed and rehydrated using xylene followed by graded aqueous ethanol solutions to PBS. […]
The IL-6 was detected by incubation with goat anti-mouse IL-6 antibody (R & D systems) followed biotinylated anti-goat IgG (Vector Laboratories, Burl ingame, CA), before treating with StreptABComplex/HRP (biotinylated horseradish peroxidase and streptavidin; Dako Corporation, CA) for 30 min. […]
The stained sections were examined by light microscopy at 20× magnification and images were captured digitally with a Sony Hyper HAD colour video camera (Sony, Tokyo, Japan). Stain intensity was analysed using a Leica Q500 MC image processing and analysis system (Leica, Cambridge, UK) and semi-quantitated in arbitrary image analysis units as the average intensity of 15 sequential fields across the skin section for each of 3 mice per treatment group. […]

SJL/J mice (EAE) = assay: Experimental autoimmune encephalomyelitis (EAE), PLP 139-151; type: in vivo, mouse; conditions: 20 μM, 100 μl topical daily
Description: EAE induction was carried by immunisation with PLP 139-151 ([…]-NH2) in incomplete Freund's adjuvant (Sigma) supplemented with 4 mg/ml of Mycobacterium tuberculosis (strain H37Ra) as described previously, Groups of 6 female mice aged 4-5 weeks old were immunised, and body weight and the development neurological signs were monitored daily for 6 weeks. Clinical signs were scored according to an established scale:
Cpd. 18 was made up to a concentration of 20 μM in a vehicle of propylene glycol-ethanol-water (1:2:1) with 0.001% DMSO). An aliquot of 100 μl either of Cpd. 18 in vehicle, or the vehicle alone, was applied to the mouse dorsum (six mice per group) for 5 days before the immunisation (with PLP 139-151) and daily post-immunisation for 48 days.

Row | Structure (SMILES) | IC50 (A10) | Leucocytes in lavage fluid (×10^−7) ([1]; 1 mM added to air pouch) | Polymorphs in tissue sections (per 100 squares) ([1]; 1 mM added to air pouch) | activity in the rat air pouch assay [1] | dermal mast cell number (mast cells) | UVB-induced levels of IL-6 immunopositivity in the epidermis (IL-6) | disease course (SJL/J mice (EAE)) | severity of clinical signs (SJL/J mice (EAE); acute phase and first relapse at 28-36 days) | Leucocytes in lavage fluid (×10^−7) ([1]; 100 μM added to air pouch) | Polymorphs in tissue sections (per 100 squares) ([1]; 100 μM added to air pouch)
1 | Cc1c(O)ccc2c1OCC(c1cccc(O)c1)=C2 [Cpd. 14, 3′,7-Dihydroxy-8-methylisoflav-3-ene] | 10 µM | – | – | – | – | – | – | – | – | –
2 | COc1cccc(C2=Cc3ccc(O)cc3OC2)c1 [Cpd. 16, 7-Hydroxy-3′-methoxyisoflav-3-ene] | 31 µM | 0.53 ± 0.35 ×10^−7 | 14.1 ± 15.8 per 100 squares | active | – | – | – | – | – | –
3 | COc1ccc(C2=Cc3ccc(O)cc3OC2)cc1OC [Cpd. 18, 7-Hydroxy-3′,4′-dimethoxyisoflav-3-ene] | – | 0.51 ± 0.33 ×10^−7 | 6.3 ± 1.3 per 100 squares | active | 10.0 cells per field | significantly reduced | chronic relatively stable disease | tended to reduce the severity | 0.88 ± 0.30 ×10^−7 | 23.2 ± 10.4 per 100 squares
